Data from publication PMC10974828, “Identification of Novel Flavonoids and Ansa-Macrolides with Activities against Leishmania donovani through Natural Product Library Screening” (Pathogens, 2024).
Values joined by “and” are separate entries in the source; they are usually repeats but may differ in a detail not shown here. Identical values can stand only once. Like-named read-outs stand apart in the source and are kept apart here.

Columns and labels:
[1] = test system: THP-1 cells; test: Host cell cytotoxicity in the intracellular Leishmania assay (THP-1 cell ratio); format: cell-based, Human; conditions: host THP-1 cells in the intracellular assay, 72 h
Procedure: (§1) PMA-treated THP-1 cells were seeded at 0.8 × 10^4 cells per well in a 384-well plate in RPMI-1640 complete medium supplemented with 10% FBS. After 48 h of incubation at 37 °C in the presence of 5% CO2, the L. donovani amastigotes, isolated from infected hamster liver, were added to the cell culture at a ratio of 10:1. The infected THP-1 cells were treated with screening compounds (the same set used in the promastigotes HTS) at 10 µM, with amphotericin B and miltefosine serving as positive controls and 0.5% DMSO as a negative control. After 72 h, the cells and parasites were washed, stained, and fixed with 5 µM DAPI and 4% PFA. Images were acquired through Operetta® CLS™ (PerkinElmer, Shelton, CT, USA), and the numbers of parasites, host cells, and infection ratios were quantified using the Columbus™ software (https://www.perkinelmer.com/product/image-data-storage-and-analysis-system-columbus, accessed on 7 February 2024) (PerkinElmer, Shelton, CT, USA). The hits identified from the screening were confirmed by testing in a 10-point, 1/2 dilution manner starting from 400, 200, 100, or 50 μM in duplicates of two independent experiments to calculate the IC50 values.
(§2) All of the IC50 and the half-maximal cytotoxic concentration (CC50) values were calculated using two independent experiments. Outliers were excluded, and the dose–response curves were fitted using the GraphPad Prism V6.0 software (GraphPad Software, San Diego, CA, USA) by using a sigmoidal dose–response equation with a variable hill slope option.

[2] = test system: L. donovani intracellular amastigotes; test: Intracellular L. donovani amastigote assay in THP-1 cells (image-based); format: cell-based, Leishmania donovani; conditions: for IC50: Leishmania donovani, amastigotes in PMA-treated THP-1 cells, 72 h, read-out: Intracellular L. donovani Inhibition IC50; for Selectivity Index (SI): THP-1 CC50 / amastigotes IC50
Procedure: as §1, §2

[3] = test system: L. donovani promastigotes; test: L. donovani promastigote viability assay (resazurin); format: cell-based; conditions: Leishmania donovani; 72 h exposure, resazurin readout, two independent experiments; read-out: L. donovani Promastigote Inhibition IC50
Procedure: The inhibition of L. donovani promastigote growth was assessed by measuring the conversion of resazurin to resorufin. The promastigotes were dispensed at a density of 5 × 10^4 L. donovani promastigotes per well into 384-well plates and exposed to the natural product library composed of 2562 molecules at 10 μM for 72 h. Following the incubation, resazurin sodium salt was added, and the plates were further incubated for 5 h before fixation using 4% paraformaldehyde. The results were then analyzed using a Victor3™ plate reader (PerkinElmer, Shelton, CT, USA) at an emission wavelength of 590 nm and an excitation wavelength of 530 nm. Amphotericin B and miltefosine served as reference drugs for inhibiting the growth of L. donovani promastigotes. The hits identified from the screening were confirmed by testing in a 10-point, 1/2 dilution manner starting from 400, 200, 100, or 50 μM (depending on the solubility and activity) in duplicates of two independent experiments to calculate the IC50 values.
as §2

[4] = test system: L. infantum; set-up: method as in PMID 32441133; conditions: read-out: IC50 against L. infantum; cited from earlier work
[5] = test system: Trypanosoma brucei; set-up: method as in PMID 28498323; conditions: read-out: IC50 against Trypanosoma brucei; cited from earlier work
[6] = test system: L. donovani amastigotes; set-up: method as in PMID 28498323; conditions: read-out: IC50 against L. donovani amastigotes; cited from earlier work
[7] = test system: T. cruzi; set-up: method as in PMID 28498323; conditions: read-out: IC50 against T. cruzi; cited from earlier work
[8] = test system: hepatic parasites; set-up: method as in PMID 37091674; conditions: murine model of visceral leishmaniasis; cited from earlier work
[9] = test system: intracellular amastigotes; set-up: method as in PMID 37091674; conditions: read-out: IC50 against intracellular amastigotes; cited from earlier work
[10] = test system: eukaryotic RNA polymerase; set-up: method as in PMID 32342856; conditions: higher constant indicates lower affinity; cited from earlier work
[11] = test system: T. brucei; set-up: method as in PMID 30319238; conditions: read-out: IC50 against T. brucei; cited from earlier work
[12] = test system: L. donovani amastigotes; set-up: method as in PMID 30319238; conditions: read-out: IC50 against L. donovani amastigotes; cited from earlier work

**Q.** With `COc1ccc([C@H]2CC(=O)Oc3ccc4c(c32)O/C(=C\c2cc(OC)c(OC)cc2OC)C4=O)cc1O` [BMD-NP-01562] as the compound, how does the “THP-1 Cell Ratio CC50” value [1] read?
**A.** >50.00 µM

**Q.** What about the IC50 [2] of the same compound?
**A.** 5.1 ± 0.34 µM

**Q.** What about the “Selectivity Index (SI)” value [2] of the same compound?
**A.** >9.8

**Q.** And the IC50 [3]?
**A.** 9.88 ± 0.71 µM

**Q.** For `COc1cc([C@@H]2CC(=O)Oc3ccc4c(=O)c(-c5ccccc5)coc4c32)ccc1O` [BMD-NP-01555], which “THP-1 Cell Ratio CC50” value [1] is on record?
**A.** >50.00 µM

**Q.** What about the IC50 [2] of the same compound?
**A.** 2.2 ± 0.29 µM

**Q.** And the IC50 [3]?
**A.** 12.9 ± 0.28 µM

**Q.** With `CCCC1CC(=O)Oc2c(C(=O)C(C)C(C)O)c(O)c3c(c21)OC(C)(C)C=C3` (centres unmarked) [Calanolide E2] as the compound, how does the IC50 [4] read?
**A.** 29.1 µM

**Q.** What does the source list for `CC(C)C1CC(=O)Oc2cc(O)c3c(=O)cc(-c4ccc(O)c(O)c4)oc3c21` (centres unmarked) [BMD-NP-01550]?
**A.** THP-1 Cell Ratio CC50 [1]: 20.84 ± 1.04 µM; IC50 [2]: 3.44 ± 0.64 µM; Selectivity Index (SI) [2]: 6.1; IC50 [3]: 23.5 ± 0.52 µM

**Q.** For `COC1C=COC2(C)Oc3c(C)c(OC(=O)c4ccccc4)c4c(c3C2=O)C(=O)C(N2CC(C)OC(C)C2)=C(NC(=O)C(C)=CC=CC(C)C(O)C(C)C(O)C(C)C(OC(C)=O)C1C)C4=O` (centres unmarked) [BMD-NP-02084], which “THP-1 Cell Ratio CC50” value [1] is on record?
**A.** 12.45 ± 1.02 µM

**Q.** And the IC50 [2]?
**A.** 2.12 ± 0.4 µM

**Q.** And the “Selectivity Index (SI)” value [2]?
**A.** 5.9

**Q.** What about the IC50 [3] of the same compound?
**A.** 2.53 ± 0.14 µM

**Q.** What does the source list for `CCCCCCC/C=C/C=C/C(=O)NCCc1ccc(O)cc1` [dodeca-2E,4E-dienoic acid 4-hydroxy-2-phenylethylamide]?
**A.** IC50 [5]: 7.17 µM; IC50 [6]: 13.3 µM; IC50 [7]: 5.97 µM

**Q.** Which results are given for `O=c1cc(-c2ccc(O)cc2)oc2cc(O)cc(O)c12` [apigenin, 4′,5,7-trihydroxyflavone]?
**A.** reduction in hepatic parasites [8]: 99.7%; IC50 [9]: 2.3 µM

**Q.** Which results are given for `COc1ccc(CCOc2cc([C@@H]3CC(=O)Oc4cc(O)c5c(=O)cc(-c6ccc(O)c(O)c6)oc5c43)ccc2OC)cc1` [BMD-NP-02255]?
**A.** THP-1 Cell Ratio CC50 [1]: >50.00 µM; IC50 [2]: 4.9 ± 0.65 µM; IC50 [3]: 45.9 ± 1.09 µM

**Q.** What does the source list for `O=C1C[C@H](c2cccnc2)c2c(cc(O)c3c(=O)c(-c4ccc(Cl)cc4)coc23)O1` [BMD-NP-01559]?
**A.** THP-1 Cell Ratio CC50 [1]: > 50.00 µM; IC50 [2]: 2.37 ± 0.49 µM; Selectivity Index (SI) [2]: >21.1; IC50 [3]: 19.08 ± 0.13 µM

**Q.** Which results are given for `CCCCOc1ccc(C(=O)Oc2c(C)c3c4c5c2C(=O)C(=C(N2CCCCC2)C5=O)NC(=O)C(C)=CC=CC(C)C(O)C(C)C(O)C(C)C(OC(C)=O)C(C)C(OC)C=COC(C)(O3)C4=O)cc1` (centres unmarked) [BMD-NP-02070]?
**A.** IC50 [2]: 3.34 ± 0.42 µM; Selectivity Index (SI) [2]: >15.0; IC50 [3]: 29.9 ± 1.27 µM

**Q.** For `O[C@H]1[C@H]2c3cc4c(cc3CN3CCC(=C[C@@H]1O)[C@H]23)OCO4` [BMD-NP-01077, Lycorine], which “THP-1 Cell Ratio CC50” value [1] is on record?
**A.** >50.00 µM

**Q.** What about the IC50 [2] of the same compound?
**A.** 2.63 ± 0.57 µM

**Q.** What about the “Selectivity Index (SI)” value [2] of the same compound?
**A.** >19.0

**Q.** And the IC50 [3]?
**A.** 6.99 ± 0.74 µM

**Q.** For `CO[C@H]1/C=C/O[C@@]2(C)Oc3c(C)c(O)c4c(O)c(cc(O)c4c3C2=O)NC(=O)/C(C)=C\C=C\[C@H](C)[C@H](O)[C@@H](C)[C@@H](O)[C@@H](C)[C@H](OC(C)=O)[C@@H]1C` [Rifamycin], which “binding constant for eukaryotic RNA polymerase relative to prokaryotic RNA polymerase” value [10] is on record?
**A.** 100 times

**Q.** For `COc1ccc(NC2=C3NC(=O)C(C)=CC=CC(C)C(O)C(C)C(O)C(C)C(OC(C)=O)C(C)C(OC)C=COC4(C)Oc5c(C)c(OC(=O)c6ccc(C)cc6)c(c(c5C4=O)C2=O)C3=O)cc1` (centres unmarked) [BMD-NP-02085], which “THP-1 Cell Ratio CC50” value [1] is on record?
**A.** 13.07 µM and 13.07 ± 0.56 µM

**Q.** And the IC50 [2]?
**A.** 1.76 ± 0.85 µM

**Q.** What about the “Selectivity Index (SI)” value [2] of the same compound?
**A.** 7.5 and 7.4

**Q.** What about the IC50 [3] of the same compound?
**A.** 1.76 ± 0.28 µM

**Q.** For “methyl-ent-3β-hydroxylabd-8(17)-en-15-oate”, which IC50 [11] is on record?
**A.** 3.84 µM

**Q.** What about the IC50 [12] of the same compound?
**A.** 7.82 µM

**Q.** For `OC1C=C2CCN3Cc4cc5c(cc4C(C1O)C23)OCO5` (centres unmarked) [BMD-NP-00820], which “THP-1 Cell Ratio CC50” value [1] is on record?
**A.** >50.00 µM

**Q.** And the IC50 [2]?
**A.** 1.74 ± 0.27 µM

**Q.** And the “Selectivity Index (SI)” value [2]?
**A.** >28.7

**Q.** What about the IC50 [3] of the same compound?
**A.** 3.99 ± 0.4 µM

**Q.** For `COc1cc(C=C2Oc3c(ccc4c3C(c3ccnn3C(C)C)CC(=O)O4)C2=O)cc(OC)c1OC` (centres unmarked) [BMD-NP-01586], which “THP-1 Cell Ratio CC50” value [1] is on record?
**A.** 36.90 ± 1.13 µM

**Q.** What about the IC50 [2] of the same compound?
**A.** 2.97 ± 0.33 µM

**Q.** What about the “Selectivity Index (SI)” value [2] of the same compound?
**A.** 12.4

**Q.** And the IC50 [3]?
**A.** 36.3 ± 0.42 µM
